Data: patent US8247211B2, “Glycopeptide antibiotics” (American Cyanamid Company, priority 2001, dated 2012)
Converted amounts (≈) assume the structure as drawn.

Key:
Test in all cases: In vitro antibacterial evaluation: minimum inhibitory concentration (MIC), broth dilution method
Format in all cases: cell-based
[1] = test system: Staphylococcus sp.; settings: broth dilution, 18 hours at 35° C.
Outline: (§1)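 Values are minimum inhibitory concentrations, meaning the smallest antibiotic concentration that stops growth of the organism. They come from broth dilution in Muller-Hinton II […] per NCCLS guidance (M7-A2), using 5×10^5 CFU/mL and concentrations from 64 to 0.06 μg/mL.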

[2] = test system: Enterococcus sp.
Outline: as §1

[3] = test system: Escherichia coli
Outline: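 Inoculum: 5×10^5 CFU/mL. Range: 64-0.06 μg/mL. Medium: Muller-Hinton II […]; NCCLS M7-A2 broth dilution. Endpoint: lowest concentration inhibiting growth. Strains include methicillin-, penicillin- and/or vancomycin-resistant clinical isolates.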

[4] = test system: Streptococcus sp.
Outline: as §1

[5] = broth dilution, inoculum 5×10^5 CFU/mL, 18 hours at 35° C.

- MIC Coagulase Negative Staphylococcus (GC 4547) ([1]; 5×10^5 CFU/mL): 8 µg/mL (≈ 5.46 µM)
- MIC Coagulase Negative Staphylococcus (GC 4548) ([1]; 5×10^5 CFU/mL): 4 µg/mL (≈ 2.73 µM)
- MIC Coagulase Negative Staphylococcus (GC 4549) ([1]; 5×10^5 CFU/mL): 4 µg/mL (≈ 2.73 µM)
- MIC Coagulase Negative Staphylococcus (GC 4551) ([1]; 5×10^5 CFU/mL): 8 µg/mL (≈ 5.46 µM)
- MIC Coagulase Negative Staphylococcus (GC 6257) ([1]; 5×10^5 CFU/mL): 4 µg/mL (≈ 2.73 µM)
- MIC Staphylococcus aureus (ATCC 29213) ([1]; 5×10^5 CFU/mL): 8 µg/mL (≈ 5.46 µM)
- MIC Staphylococcus aureus (GC 1131) ([1]; 5×10^5 CFU/mL): 8 µg/mL (≈ 5.46 µM)
- MIC Staphylococcus aureus (GC 3051) ([1]; 5×10^5 CFU/mL): 8 µg/mL (≈ 5.46 µM)
- MIC Staphylococcus aureus (GC 3053) ([1]; 5×10^5 CFU/mL): 8 µg/mL (≈ 5.46 µM)
- MIC Staphylococcus aureus (GC 4541) ([1]; 5×10^5 CFU/mL): 8 µg/mL (≈ 5.46 µM)
- MIC Staphylococcus aureus (GC 4542) ([1]; 5×10^5 CFU/mL): 16 µg/mL (≈ 10.9 µM)
- MIC Staphylococcus aureus (GC 4544) ([1]; 5×10^5 CFU/mL): 8 µg/mL (≈ 5.46 µM)
- MIC Staphylococcus aureus (GC 4545) ([1]; 5×10^5 CFU/mL): 8 µg/mL (≈ 5.46 µM)
- MIC Staphylococcus aureus-SMITH (GC 4543) ([1]; 5×10^5 CFU/mL): 8 µg/mL (≈ 5.46 µM)
- MIC Staphylococcus aureus (ATCC 29213) ([1]; strain ATCC 29213): 8 µg/mL (≈ 5.46 µM)
- MIC Staphylococcus aureus (GC 1131) ([1]; strain GC 1131): 8 µg/mL (≈ 5.46 µM)
- MIC Staphylococcus aureus (GC 3051) ([1]; strain GC 3051): 8 µg/mL (≈ 5.46 µM)
- MIC Staphylococcus aureus (GC 3053) ([1]; strain GC 3053): 8 µg/mL (≈ 5.46 µM)
- MIC Staphylococcus aureus (GC 4541) ([1]; strain GC 4541): 8 µg/mL (≈ 5.46 µM)
- MIC Staphylococcus aureus (GC 4542) ([1]; strain GC 4542): 16 µg/mL (≈ 10.9 µM)
- MIC Staphylococcus aureus-SMITH (GC 4543) ([1]; strain GC 4543): 8 µg/mL (≈ 5.46 µM)
- MIC Staphylococcus aureus (GC 4544) ([1]; strain GC 4544): 8 µg/mL (≈ 5.46 µM)
- MIC Staphylococcus aureus (GC 4545) ([1]; strain GC 4545): 8 µg/mL (≈ 5.46 µM)
- MIC Coagulase Negative Staphylococcus (GC 4547) ([1]; strain GC 4547): 8 µg/mL (≈ 5.46 µM)
- MIC Coagulase Negative Staphylococcus (GC 4548) ([1]; strain GC 4548): 4 µg/mL (≈ 2.73 µM)
- MIC Coagulase Negative Staphylococcus (GC 4549) ([1]; strain GC 4549): 4 µg/mL (≈ 2.73 µM)
- MIC Coagulase Negative Staphylococcus (GC 4551) ([1]; strain GC 4551): 8 µg/mL (≈ 5.46 µM)
- MIC Coagulase Negative Staphylococcus (GC 6257) ([1]; strain GC 6257): 4 µg/mL (≈ 2.73 µM)
- MIC Enterococcus avium (GC 4558) [2, 5]: 8 µg/mL (≈ 5.46 µM)
- MIC Enterococcus faecalis (ATCC 29212) [2, 5]: 16 µg/mL (≈ 10.9 µM)
- MIC Enterococcus faecalis (GC 2242) [2, 5]: 16 µg/mL (≈ 10.9 µM)
- MIC Enterococcus faecalis (GC 2691) [2, 5]: 16 µg/mL (≈ 10.9 µM)
- MIC Enterococcus faecalis (GC 3059) [2, 5]: 16 µg/mL (≈ 10.9 µM)
- MIC Enterococcus faecalis (GC 4552) [2, 5]: 16 µg/mL (≈ 10.9 µM)
- MIC Enterococcus faecalis (GC 4553) [2, 5]: 16 µg/mL (≈ 10.9 µM)
- MIC Enterococcus faecalis (GC 4554) [2, 5]: 16 µg/mL (≈ 10.9 µM)
- MIC Enterococcus faecalis (GC 6189) [2, 5]: 16 µg/mL (≈ 10.9 µM)
- MIC Enterococcus faecium (GC 2243) [2, 5]: 8 µg/mL (≈ 5.46 µM)
- MIC Enterococcus faecium (GC 4556) [2, 5]: 16 µg/mL (≈ 10.9 µM)
- MIC Enterococcus faecium (GC 4557) [2, 5]: 4 µg/mL (≈ 2.73 µM)
- MIC Enterococcus faecalis (ATCC 29212) ([2]; strain ATCC 29212): 16 µg/mL (≈ 10.9 µM)
- MIC Enterococcus faecalis (GC 2242) ([2]; strain GC 2242): 16 µg/mL (≈ 10.9 µM)
- MIC Enterococcus faecium (GC 2243) ([2]; strain GC 2243): 8 µg/mL (≈ 5.46 µM)
- MIC Enterococcus faecalis (GC 2691) ([2]; strain GC 2691): 16 µg/mL (≈ 10.9 µM)
- MIC Enterococcus faecalis (GC 3059) ([2]; strain GC 3059): 16 µg/mL (≈ 10.9 µM)
- MIC Enterococcus faecalis (GC 4552) ([2]; strain GC 4552): 16 µg/mL (≈ 10.9 µM)
- MIC Enterococcus faecalis (GC 4553) ([2]; strain GC 4553): 16 µg/mL (≈ 10.9 µM)
- MIC Enterococcus faecalis (GC 4554) ([2]; strain GC 4554): 16 µg/mL (≈ 10.9 µM)
- MIC Enterococcus faecium (GC 4556) ([2]; strain GC 4556): 16 µg/mL (≈ 10.9 µM)
- MIC Enterococcus faecium (GC 4557) ([2]; strain GC 4557): 4 µg/mL (≈ 2.73 µM)
- MIC Enterococcus avium (GC 4558) ([2]; strain GC 4558): 8 µg/mL (≈ 5.46 µM)
- MIC Enterococcus faecalis (GC 6189) ([2]; strain GC 6189): 16 µg/mL (≈ 10.9 µM)
- MIC Escherichia coli (ATCC 25922) ([3]; strain ATCC 25922): 32 µg/mL (≈ 21.8 µM)
- MIC Escherichia coli (GC 4559) ([3]; strain GC 4559): 32 µg/mL (≈ 21.8 µM)
- MIC Escherichi coli (GC 4560) ([3]; strain GC 4560): 8 µg/mL (≈ 5.46 µM)
- MIC Streptococcus agalactiae (GC 4564) [4, 5]: 1 µg/mL (≈ 0.682 µM)
- MIC Streptococcus pneumoniae (ATCC 6301) [4, 5]: 1 µg/mL (≈ 0.682 µM)
- MIC Streptococcus pneumoniae (GC 1894) [4, 5]: 0.25 µg/mL (≈ 0.171 µM)
- MIC Streptococcus pneumoniae (GC 4565) [4, 5]: 1 µg/mL (≈ 0.682 µM)
- MIC Streptococcus pyogenes (GC 4563) [4, 5]: 0.5 µg/mL (≈ 0.341 µM)
- MIC Streptococcus pneumoniae (ATCC 6301) ([4]; strain ATCC 6301): 1 µg/mL (≈ 0.682 µM)
- MIC Streptococcus pneumoniae (GC 1894) ([4]; strain GC 1894): 0.25 µg/mL (≈ 0.171 µM)
- MIC Streptococcus pyogenes (GC 4563) ([4]; strain GC 4563): 0.5 µg/mL (≈ 0.341 µM)
- MIC Streptococcus agalactiae (GC 4564) ([4]; strain GC 4564): 1 µg/mL (≈ 0.682 µM)
- MIC Streptococcus pneumoniae (GC 4565) ([4]; strain GC 4565): 1 µg/mL (≈ 0.682 µM)
Compound: CC(c1ccccc1)C1NC(=O)CNC(=O)C(CO)NC(=O)C(C(O)C2CNC(=N)N2C2OC(CO)C(O)C(O)C2O)NC(=O)C(C(O)C2CNC(=N)N2)NC(=O)C(Cc2ccc(OC3OC(CO)C(OC4OC(CO)C(O)C5OC(c6ccc(-c7ccsc7)cc6)OC45)C(O)C3O)cc2)NC1=O (stereo not drawn) [Example 164a, Cyclo[glycyl-β-methylphenylalanyl-O-[4-O-[2,3-O-[4-(3-thienyl)benzylidene]hexopyranosyl]-hexopyranosyl]tyrosyl-3-(2-iminoimidazolidin-4-yl)seryl-3-(3-hexopyranosyl-2-iminoimidazolidin-4-yl)serylseryl]]
- MIC Staphylococcus haemolyticus (GC 4546) ([1]; 5×10^5 CFU/mL): 4 µg/mL (≈ 2.73 µM)
- MIC Staphylococcus haemolyticus (GC 4546) ([1]; strain GC 4546): 4 µg/mL (≈ 2.73 µM)
